Several values for one entry are separate records, joined by “and”; a condition that tells them apart may be missing. Equal entries are not always repeated. Inconclusive results and toxic doses are left out. How the source made its calls: active means survival T/C of 150% or more; inactive means T/C below 125% in these data.
System: CD2F1 mice, L1210 leukemia ip, survival T/C
Assay: NCI In Vivo Anticancer Drug Screen. Data for tumor model L1210 Leukemia (intraperitoneal) in CD2F1 (CDF1) mice
Conditions: higher = longer survival
Procedure, shortened: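 In this screen, transplantable tumors were grown in mice given either the compound or its vehicle. Results were expressed as the treated measurement relative to the control measurement.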

[1] = endpoint: mean survival time, dose: 25.0 mg/kg/injection, schedule: Q04DX003 (ip), vehicle: saline with Tween-80
[2] = endpoint: mean survival time, dose: 50.0 mg/kg/injection, schedule: Q01DX009 (ip), vehicle: saline with Tween-80
[3] = endpoint: mean survival time, dose: 50.0 mg/kg/injection, schedule: Q04DX003 (ip), vehicle: saline with Tween-80
[4] = endpoint: mean survival time, dose: 100.0 mg/kg/injection, schedule: Q01DX001 (ip), vehicle: saline with Tween-80
[5] = endpoint: mean survival time, dose: 100.0 mg/kg/injection, schedule: Q01DX009 (ip), vehicle: saline with Tween-80
[6] = endpoint: mean survival time, dose: 100.0 mg/kg/injection, schedule: Q04DX003 (ip), vehicle: saline with Tween-80
[7] = endpoint: mean survival time, dose: 200.0 mg/kg/injection, schedule: Q01DX001 (ip), vehicle: saline with Tween-80
[8] = endpoint: mean survival time, dose: 200.0 mg/kg/injection, schedule: Q01DX009 (ip), vehicle: saline with Tween-80
[9] = endpoint: mean survival time, dose: 25.0 mg/kg/injection, schedule: Q01DX009 (ip), vehicle: saline with Tween-80
[10] = endpoint: mean survival time, dose: 25.0 mg/kg/injection, schedule: Q01DX009 (ip), vehicle: saline
[11] = endpoint: mean survival time, dose: 50.0 mg/kg/injection, schedule: Q01DX009 (ip), vehicle: saline
[12] = endpoint: mean survival time, dose: 100.0 mg/kg/injection, schedule: Q04DX003 (ip), vehicle: saline
[13] = endpoint: mean survival time, dose: 200.0 mg/kg/injection, schedule: Q04DX003 (ip), vehicle: saline
[14] = endpoint: mean survival time, dose: 400.0 mg/kg/injection, schedule: Q01DX009 (ip), vehicle: saline with Tween-80
[15] = endpoint: mean survival time, dose: 400.0 mg/kg/injection, schedule: Q04DX003 (ip), vehicle: saline
[16] = endpoint: mean survival time, dose: 200.0 mg/kg/injection, schedule: Q04DX003 (ip), vehicle: saline with Tween-80
[17] = endpoint: mean survival time, dose: 400.0 mg/kg/injection, schedule: Q04DX003 (ip), vehicle: saline with Tween-80

Measured: T/C

C=CC1CN2CCC1CC2C(O)c1ccnc2ccccc12 (stereo not given) (tested in a mixture with another compound)
inactive: [1] 100 % of control | endpoint: mean survival time, dose: 50.0 mg/kg/injection, schedule: Q01DX001 (ip), vehicle: saline with Tween-80 100 % of control | [2] 96 % of control | [3] 98 % of control | [4] 96 % of control and 92 % of control | [5] 98 % of control | [6] 93 % of control and 100 % of control | [7] 104 % of control and 92 % of control | [8] 90 % of control

[Cl][Sn]([c]1ccccc1)[c]1ccccc1
inactive: endpoint: mean survival time, dose: 6.25 mg/kg/injection, schedule: Q01DX009 (ip), vehicle: saline 97 % of control | endpoint: mean survival time, dose: 12.5 mg/kg/injection, schedule: Q01DX009 (ip), vehicle: saline with Tween-80 96 % of control | [9] 106 % of control | [10] 106 % of control | [11] 94 % of control

CC(C)OC(=O)C#CC(=O)O
inactive: endpoint: mean survival time, dose: 25.0 mg/kg/injection, schedule: Q01DX001 (ip), vehicle: saline 97 % of control | endpoint: mean survival time, dose: 50.0 mg/kg/injection, schedule: Q01DX001 (ip), vehicle: saline 97 % of control

CC(=O)SCCNCCOCCC#N
inactive: [5] 97 % of control | [12] 95 % of control | [8] 101 % of control | [13] 101 % of control | [14] 95 % of control | [15] 101 % of control

CCOC(=O)C(C#N)C(C(C)=O)C(=O)OCC (stereo not given)
inactive: [1] 103 % of control | [3] 98 % of control | [6] 97 % of control

OC(CCC(O)CSc1ccccc1)CSc1ccccc1 (stereo not given)
inactive: endpoint: mean survival time, dose: 100.0 mg/kg/injection, schedule: Q01DX009 (ip), vehicle: other 100 % of control | endpoint: mean survival time, dose: 200.0 mg/kg/injection, schedule: Q01DX009 (ip), vehicle: other 100 % of control | endpoint: mean survival time, dose: 400.0 mg/kg/injection, schedule: Q01DX009 (ip), vehicle: other 96 % of control

CC(C)CCCC(C)C1CCC2C3CCC4=CC5(CCC4(C)C3CCC12C)SCCS5 (stereo not given)
inactive: [4] 87 % of control | [7] 91 % of control

Cc1ccc(S(=O)(=O)O/N=C2/CCC(C)(C)c3ccccc32)cc1
inactive: [5] 102 % of control | [6] 102 % of control | [8] 102 % of control | [16] 103 % of control | [14] 94 % of control | [17] 96 % of control

N#CC1CC2C=CC1C2 (stereo not given)
inactive: endpoint: mean survival time, dose: 5.0 mg/kg/injection, schedule: Q01DX009 (ip), vehicle: saline 98 % of control | endpoint: mean survival time, dose: 5.0 mg/kg/injection, schedule: Q04DX003 (ip), vehicle: saline 95 % of control | endpoint: mean survival time, dose: 10.0 mg/kg/injection, schedule: Q01DX009 (ip), vehicle: saline 98 % of control | endpoint: mean survival time, dose: 10.0 mg/kg/injection, schedule: Q04DX003 (ip), vehicle: saline 97 % of control | endpoint: mean survival time, dose: 20.0 mg/kg/injection, schedule: Q01DX009 (ip), vehicle: saline 87 % of control | endpoint: mean survival time, dose: 20.0 mg/kg/injection, schedule: Q04DX003 (ip), vehicle: saline 100 % of control

O=C1c2ccccc2C(c2ccccc2)(c2ccccc2)N1c1ccccc1
inactive: [6] 107 % of control | [16] 104 % of control | [17] 107 % of control

O=c1cn[nH]c2ccc(Br)cc12
inactive: endpoint: mean survival time, dose: 100.0 mg/kg/injection, schedule: Q01DX001 (ip), vehicle: other 97 % of control | endpoint: mean survival time, dose: 200.0 mg/kg/injection, schedule: Q01DX001 (ip), vehicle: other 102 % of control | endpoint: mean survival time, dose: 400.0 mg/kg/injection, schedule: Q01DX001 (ip), vehicle: other 91 % of control

Nc1nc2c(c(=O)[nH]1)N1C(=O)N(c3ccc(C(=O)NC(CCC(=O)O)C(=O)O)cc3)CC1CN2 (stereo not given)
inactive: endpoint: mean survival time, dose: 100.0 mg/kg/injection, schedule: Q01DX001 (ip), vehicle: sodium bicarbonate 107 % of control | endpoint: mean survival time, dose: 200.0 mg/kg/injection, schedule: Q01DX001 (ip), vehicle: sodium bicarbonate 113 % of control | endpoint: mean survival time, dose: 400.0 mg/kg/injection, schedule: Q01DX001 (ip), vehicle: sodium bicarbonate 109 % of control

C=CCOCCC#N
inactive: [5] 95 % of control

OCC1OC(c2cccs2)C(O)C1O (stereo not given)
inactive: endpoint: median survival time, dose: 12.5 mg/kg/injection, schedule: Q01DX005 (ip), vehicle: saline 102 % of control | endpoint: median survival time, dose: 25.0 mg/kg/injection, schedule: Q01DX005 (ip), vehicle: saline 98 % of control | endpoint: median survival time, dose: 50.0 mg/kg/injection, schedule: Q01DX005 (ip), vehicle: saline 92 % of control | endpoint: median survival time, dose: 100.0 mg/kg/injection, schedule: Q01DX005 (ip), vehicle: saline 98 % of control | endpoint: median survival time, dose: 200.0 mg/kg/injection, schedule: Q01DX005 (ip), vehicle: saline 106 % of control

COc1ccc(/C=N/N=C(/C(=O)c2ccc(OC)cc2)c2ccc(OC)cc2)cc1
inactive: endpoint: mean survival time, dose: 100.0 mg/kg/injection, schedule: Q01DX001 (ip), vehicle: saline 95 % of control | [12] 102 % of control | endpoint: mean survival time, dose: 200.0 mg/kg/injection, schedule: Q01DX001 (ip), vehicle: saline 91 % of control | [13] 97 % of control | endpoint: mean survival time, dose: 400.0 mg/kg/injection, schedule: Q01DX001 (ip), vehicle: saline 95 % of control | [15] 96 % of control

[B-][N+](C)(C)Cc1ccccc1
inactive: [9] 94 % of control | [2] 88 % of control | [4] 101 % of control

O=C(O)c1ccccc1/C=C/c1ccc([N+](=O)[O-])cc1
inactive: [9] 98 % of control | [2] 95 % of control | [5] 104 % of control

CCN(CC)C(=O)c1ccc[n+](Cc2ccc(Cl)cc2)c1
inactive: [12] 102 % of control

COC(=O)NC1C(C)OC(OC2C/C=C(/C)C3C=CC4C(OC5CC(OC6CC(O)C(OC7CC(O)C(OC)C(C)O7)C(C)O6)C(O)C(C)O5)C(C)CC(C)C4C3(C)/C(O)=C3\C(=O)OC4(CC(C)C(CO)=CC4/C=C\2C)C3=O)CC1(C)[N+](=O)[O-] (stereo not given)
inactive: endpoint: median survival time, dose: 12.5 mg/kg/injection, schedule: Q01DX009 (ip), vehicle: Klucel (hydroxypropylcellulose) (HPC) 102 % of control | endpoint: median survival time, dose: 25.0 mg/kg/injection, schedule: Q01DX009 (ip), vehicle: Klucel (hydroxypropylcellulose) (HPC) 109 % of control | endpoint: median survival time, dose: 50.0 mg/kg/injection, schedule: Q01DX009 (ip), vehicle: Klucel (hydroxypropylcellulose) (HPC) 102 % of control | endpoint: median survival time, dose: 100.0 mg/kg/injection, schedule: Q01DX009 (ip), vehicle: Klucel (hydroxypropylcellulose) (HPC) 103 % of control

c1ccc(N/N=C(/CC/C(=N\Nc2ccccc2)c2ccccc2)c2ccccc2)cc1
inactive: [4] 96 % of control | [7] 96 % of control | endpoint: mean survival time, dose: 400.0 mg/kg/injection, schedule: Q01DX001 (ip), vehicle: saline with Tween-80 93 % of control

CN(C)c1ccc(N=C(C#N)C(=O)c2ccccc2)cc1
inactive: [5] 95 % of control | [8] 97 % of control | [14] 97 % of control

Cn1ccn(C2CCCCC2)c1=O
inactive: [9] 98 % of control | [1] 96 % of control | [2] 101 % of control | [3] 100 % of control | [5] 95 % of control | [6] 91 % of control and 93 % of control

Nc1ncnc2c1ncn2CCCN1C(=O)c2ccccc2C1=O
inactive: [5] 93 % of control | [8] 95 % of control | [14] 101 % of control

O=S(=O)(OCC1CC2CCC1CC2)c1ccc(Br)cc1 (stereo not given)
inactive: [5] 96 % of control | [6] 95 % of control | [8] 112 % of control | [16] 97 % of control | [14] 102 % of control | [17] 95 % of control

Cc1cn(C2CC(O)C(CO)O2)c(=O)[nH]c1=O (stereo not given)
inactive: endpoint: mean survival time, dose: 12.5 mg/kg/injection, schedule: Q01DX009 (ip), vehicle: saline 95 % of control and 104 % of control | [10] 91 % of control and 103 % of control | [11] 91 % of control and 104 % of control | endpoint: mean survival time, dose: 100.0 mg/kg/injection, schedule: Q01DX009 (ip), vehicle: saline 98 % of control | endpoint: mean survival time, dose: 200.0 mg/kg/injection, schedule: Q01DX009 (ip), vehicle: saline 95 % of control and 103 % of control | endpoint: mean survival time, dose: 250.0 mg/kg/injection, schedule: Q03HX008 (ip), vehicle: saline 102 % of control | endpoint: mean survival time, dose: 400.0 mg/kg/injection, schedule: Q01DX009 (ip), vehicle: saline 92 % of control | endpoint: mean survival time, dose: 500.0 mg/kg/injection, schedule: Q03HX008 (ip), vehicle: saline 110 % of control | endpoint: mean survival time, dose: 1000.0 mg/kg/injection, schedule: Q03HX008 (ip), vehicle: saline 102 % of control

CC(=O)Nc1c[n+]([O-])cc2ccccc12
inactive: [5] 105 % of control | [6] 94 % of control | [8] 98 % of control | [16] 96 % of control | [14] 100 % of control | [17] 94 % of control

— PubChem BioAssay AID256 (DTP/NCI, 2004)
